Holding throughout (format): cell-based
The subject of experiment [1] is Namalwa. In words: In vitro cytotoxicity assay (WST-8 cell viability, 5 days). The note with it: Homo sapiens, read-out: In vitro cytotoxicity (IC50) Namalwa. The procedure: (§1) Cytotoxic potencies were assessed in flat-bottomed 96 well plates (Costar) using a water-soluble tetrazonium salt (WST-8) based cell viability assay (Dojindo, Molecular Technologies, Inc.) as previously described (Kovtun Y V, et al. Antibody-maytansinoid conjugates designed to bypass multidrug resistance. Cancer Res 2010; 70(6):2528-37). Briefly, human tumor cells (1,000-5,000 cells/well, depending on the cell line), in the appropriate culture medium were incubated, with conjugates in the presence or absence of an excess of the corresponding unconjugated antibodies, or with the metabolites for 5 days, at 37° C., 6% CO2. Cell viability was determined from background-corrected WST-8 absorbance.
For orientation: Formazan colour is commonly taken as a measure of viable cells.

The subject of experiment [2] is HSC-2. Described as above. The following applies: Homo sapiens. The procedure: as §1
Experiment [3] has as its system SUDHL-1. Described as above. The following applies: Homo sapiens, SU-DHL-1, read-out: In vitro cytotoxicity (IC50) SUDHL-1. The procedure:
as §1

In experiment [4] the test system is N-Luc (Namalwa cells stably transfected with the Luciferase gene). Described as above. The note with it: Homo sapiens. The procedure:
as §1

For experiment [5], the system named is MDA-MB-468. The description is as above. The following applies: Homo sapiens, MDA-MB-468, read-out: In vitro cytotoxicity (IC50) MDA-MB-468. The procedure:
as §1

Experiment [6] relates to KB. In words: cells. The following applies: Homo sapiens, read-out: In vitro cytotoxicity (IC50) KB. The procedure:
as §1

Where [7] appears, read: HSC-2, read-out: In vitro cytotoxicity (IC50) HSC-2, non-conjugated compounds, Table 7A.
The mark [8] stands for this setting: read-out: In vitro cytotoxicity (IC50) N-Luc, non-conjugated compounds, Table 7A.
Where [9] appears, read: read-out: In vitro cytotoxicity (IC50) N-Luc, non-conjugated compounds, Table 7B.
Setting [10] is: HSC-2, read-out: In vitro cytotoxicity (IC50) HSC-2.
Setting [11] is: HSC-2, read-out: In vitro cytotoxicity (IC50) HSC-2, non-conjugated compounds, Table 7B.

Where two headings read alike, the source gives them in different places.

Usually IC50 stands for the concentration that inhibits the measured activity by half. Turning to `CC[C@@]1(O)C(=O)OCc2c1cc1n(c2=O)Cc2c-1nc1cc(F)c(C)cc1c2CCl` [Compound 4a], the IC50 is 3 nM in experiment [1] and 4 nM in experiment [2] (setting [7]).
Turning to `CC[C@@]1(O)C(=O)OCc2c1cc1n(c2=O)Cc2c-1nc1cc(F)c(SC)cc1c2CCl` [Compound 4b], the IC50 in experiment [1] turned out to be 1 nM; in experiment [2] (setting [7]) it was 3 nM.
For `CC[C@@]1(O)C(=O)OCc2c1cc1n(c2=O)Cc2c-1nc1cc(F)c(C)cc1c2CNC(=O)CO` [Compound 7a], the IC50 in experiment [3] came to 0.5 nM; in experiment [4] (setting [8]), 1 nM; in experiment [4] (setting [9]), 0.9 nM; in experiment [1], 0.9 nM; in experiment [2] (setting [10]) it was 2 nM; in experiment [2] (setting [7]), 4 nM. Besides, the IC50 in experiment [5] came to 3 nM.
Take `CC[C@@]1(O)C(=O)OCc2c1cc1n(c2=O)Cc2c-1nc1cc(F)c(SC)cc1c2CNC(=O)CO` [Compound 7b]: the IC50 is 2 nM in experiment [4] (setting [8]) and 7 nM in experiment [2] (setting [7]).
Take `CC[C@@]1(O)C(=O)OCc2c1cc1n(c2=O)Cc2c-1nc1cc(F)c(C)cc1c2CN(Cc1ccccc1)C(=O)CO` [Compound 7c]: the IC50 in experiment [3] stood at 0.2 nM; in experiment [4] (setting [8]), 0.7 nM; in experiment [2] (setting [7]), 1 nM; in experiment [5], 1 nM.
For the compound `CC[C@@]1(O)C(=O)OCc2c1cc1n(c2=O)Cc2c-1nc1cc(F)c(C)cc1c2CCCCO` [Compound 8a], the IC50 in experiment [4] (setting [8]) was determined as 0.9 nM; in experiment [4] (setting [9]) it was 0.2 nM; in experiment [1], 0.2 nM; in experiment [2] (setting [7]), 0.6 nM; in experiment [2] (setting [11]), 0.5 nM; in experiment [5], 2 nM. The IC50 in experiment [6] was 0.6 nM.
Regarding `CC[C@@]1(O)C(=O)OCc2c1cc1n(c2=O)Cc2c-1nc1cc(F)c(C)cc1c2CSCCO` [Compound 8c], the IC50 in experiment [4] (setting [9]) is 0.2 nM; in experiment [2] (setting [10]), 0.4 nM.
With `CC[C@@]1(O)C(=O)OCc2c1cc1n(c2=O)Cc2c-1nc1cc(F)c(C)cc1c2CSCCSC` [Compound 8p], the IC50 was found to be 0.2 nM in experiment [4] (setting [9]) and 0.6 nM in experiment [2] (setting [11]).
Regarding `CC[C@@]1(O)C(=O)OCc2c1cc1n(c2=O)Cc2c-1nc1cc(F)c(C)cc1c2CCCCSC` [Compound 33a], the IC50 in experiment [1] is 0.7 nM; in experiment [2] (setting [7]), 2 nM.
Regarding `CC[C@@]1(O)C(=O)OCc2c1cc1n(c2=O)Cc2c-1nc1cc(F)c(C)cc1c2C[S+]([O-])CCO` (some centres unmarked) [Compound 34a], the figures for the IC50 in experiment [2] (setting [7]), in experiment [5] and in experiment [6] were 9 nM, 7 nM and 7 nM, respectively.
`CC[C@@]1(O)C(=O)OCc2c1cc1n(c2=O)Cc2c-1nc1cc(F)c(C)cc1c2CS(=O)(=O)CCO` [Compound 34b]: the IC50 in experiment [2] (setting [7]) is 3 nM; in experiment [5] it was 3 nM; in experiment [6], 2 nM.
`CC[C@@]1(O)C(=O)OCc2c1cc1n(c2=O)Cc2c-1nc1cc(F)c(C)cc1c2CNC(=O)CCCCCSC` [Compound 35a]: the IC50 was determined as 0.6 nM in experiment [3] and 7 nM in experiment [2] (setting [7]).

(Values after US20220133711A1, “CAMPTOTHECIN DERIVATIVES” (priority 2019, published 2022).)
